Measurements: PubChem BioAssay AID463206 (Broad Institute, 2010)
Activity calls are given as the source filed them.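 Rule for the calls: active = caspase luminescence falls with dose and the half-maximal concentration AC50 from the fitted curve is at or below a set limit; inconclusive = flat fit at 30 to 70% signal loss, or invalid fit; inactive = AC50 above the limit, or signal rises instead.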

The molecules below were run on INS-1E cytokine-induced caspase-3/7, Caspase-Glo luminescence, 48 h (assay: inhibitors of cytokine-induced caspase-3/7 activity, dose response, orthogonal assay for beta-cell apoptosis protection project, INS-1E rat cells, luminescence (AID 463206)).
In the case of Cc1cccc(/C=N\NC(=O)c2ccc(Cl)cc2)c1O, the AC50 is reported as > 26 µM (inactive).
For Cc1ccc(-n2c(-c3ccccc3)c[n+]3c2CCC3)cc1, the AC50 was > 26 µM (inactive).
With CN(C)c1ccc(/C=C/c2ccc3ccccc3n2)cc1 the AC50 was > 26 µM (inactive).
Work on COc1cc2c(cc1OC)-c1c(OC)c(OC)c(OC)c3ccnc(c13)C2=O yielded an AC50 of 7.97 µM.
For CC(=O)Nc1ccc(S(=O)(=O)Nc2ccc(N3CCCCC3)cc2)cc1, the AC50 was > 26 µM (inactive).
With O=C(CC1CC2CCC1C2)NCCc1ccc(Cl)cc1 (stereo not drawn) the AC50 was > 26 µM (inactive).
With O=C(Nc1ccc(-c2nc3ccccc3o2)cc1)c1ccc(N2CCOCC2)c([N+](=O)[O-])c1 the AC50 was > 26 µM (inactive).
For C/C(=N/NC(=O)c1cccs1)c1c(C)[nH]n(-c2nc3ccccc3s2)c1=O, the AC50 was > 26 µM (inactive).
With C[n+]1c2n(c3ccccc31)N=C(c1ccc(-c3ccccc3)cc1)CS2 the AC50 was > 26 µM (inactive).
For O=C(N/N=C/c1ccc[nH]1)c1ccc(COc2cccc3cccnc23)cc1, the AC50 was > 26 µM (inactive).
For Cc1[nH]n(-c2ccc(Br)cc2)c(=O)c1/C=N/NC(=O)c1ccccc1, the AC50 was > 26 µM (inactive).
For CCN(CC(=O)Nc1ccc(NC(C)=O)cc1)C(=O)CCCOc1ccc(C(C)(C)C)cc1, the AC50 was > 26 µM (inactive).
For COc1ccc(C2=Nn3c([n+](C)c4ccccc43)SC2)cc1, the AC50 was > 26 µM (inactive).
In the case of CCCC(=O)NC(c1ccc(OC)cc1)c1ccc2cccnc2c1O (stereo not drawn), the AC50 is reported as > 26 µM (inactive).
With C/C(=N\Nc1nc(C)cc(-c2ccccc2)n1)c1ccc(F)cc1 the AC50 was > 26 µM (inactive).
With COc1ccc(S(=O)(=O)N(C(=O)c2ccco2)c2cc3sc(=O)oc3c3ccccc23)cc1 the AC50 was > 26 µM (inactive).
CN(C)CCCN(C(=O)COc1ccc(Cl)cc1)c1nc2cc3c(cc2s1)OCO3 was tested, and the AC50 was > 26 µM (inactive).
c1ccc2c(CN3CCCCCC3)c[nH]c2c1 was tested, and the AC50 was 4.24 µM.
For C=CCNC(=S)N/N=C(\C)c1ccccn1, the AC50 was > 26 µM (inactive).
In the case of COc1cc(CSc2nnnn2-c2ccc(C)cc2)cc(OC)c1OC, the AC50 is reported as > 26 µM (inactive).
O=C(Nc1cccnc1)c1cccnc1 was tested, and the AC50 was > 26 µM (inactive).
COc1ccc2nc(N=Nc3ccc(O)c4ccccc34)sc2c1 was tested, and the AC50 was > 26 µM (inactive).
In the case of CC1=[N+](C)c2ccc3ccccc3c2C1(C)C, the AC50 is reported as > 26 µM (inactive).
For Cc1ccc(C)c(NC(=O)c2ccccc2NS(=O)(=O)c2cc([N+](=O)[O-])ccc2C)c1, the AC50 was > 26 µM (inactive).
Cc1noc(-c2ccc(C(F)(F)F)cc2)c1NC(=O)Nc1ccc(Cl)cc1 was tested, and the AC50 was > 26 µM (inactive).
In the case of COc1ccc(C2C(O)C(c3c[nH]c4ccccc34)=NN2C(=O)CCl)cc1 (stereo not drawn), the AC50 is reported as > 26 µM (inactive).
With Clc1cc2cccnc2c2ncccc12 the AC50 was > 26 µM (inactive).
With N#CC1=C(N)N2C(=C(C#N)C1c1ccc(Br)cc1)Nc1ccccc12 (stereo not drawn) the AC50 was > 26 µM (inactive).
For C[C@@H]1CN([C@H](C)CO)C(=O)c2cc(NC(=O)Nc3ccc(C(F)(F)F)cc3)ccc2O[C@H]1CN(C)S(=O)(=O)c1cccs1, the AC50 was > 26 µM (inactive).
Cc1ccc(-c2csc(N3CCC(NS(=O)(=O)c4ccc5c(c4)OCCO5)CC3)n2)cc1 was tested, and the AC50 was > 26 µM (inactive).
In the case of COc1ccc(C2C(C#N)=C(N)Oc3c2ccc2cccnc32)cc1OC (stereo not drawn), the AC50 is reported as > 12 µM (inactive).
In the case of CC(=O)CSc1ccc(-c2nc3ccccc3[nH]2)cn1, the AC50 is reported as > 26 µM (inactive).
With CCCN(CCC)c1nc(-c2ccccn2)nc2ccccc12 the AC50 was > 26 µM (inactive).
CC1CCN(Cc2c(C(=O)N/N=C/c3cc(Cl)ccc3O)nnn2-c2nonc2N)CC1 was tested, and the AC50 was > 26 µM (inactive).
For CNC[C@@H](CC1CCCCC1)NC[C@H](CC(C)C)NCCc1cccc(C(F)(F)F)c1, the AC50 was > 26 µM (inactive).
With CCOC(=O)c1ccc(-[n+]2c(-c3ccccc3)cc(-c3ccccc3)cc2-c2ccccc2)cc1 the AC50 was > 26 µM (inactive).
Cc1c(C(=O)N(Cc2ccccc2)C(C)C)oc2ccc(S(=O)(=O)N3CCOCC3)cc12 was tested, and the AC50 was > 26 µM (inactive).
With N#CCC(=O)N/N=C/c1cc(-c2ccccc2)n(-c2ccc(Cl)cc2)c1-c1ccccc1 the AC50 was > 26 µM (inactive).
